Reference: paper PMC8973347, “Discovery of novel sulphonamide hybrids that inhibit LSD1 against bladder cancer cells” (Journal of Enzyme Inhibition and Medicinal Chemistry, 2022)
Entries after “also recorded” stand apart in the source; their conditions may differ.

Experiments:
[1] = molecular target: T1, MAO-A (Homo sapiens, UniProt P21397); test: MAO-A/B biochemical kit, MAO-A
T1 construct: purchased Promega
T1 sequence (P21397 1-527): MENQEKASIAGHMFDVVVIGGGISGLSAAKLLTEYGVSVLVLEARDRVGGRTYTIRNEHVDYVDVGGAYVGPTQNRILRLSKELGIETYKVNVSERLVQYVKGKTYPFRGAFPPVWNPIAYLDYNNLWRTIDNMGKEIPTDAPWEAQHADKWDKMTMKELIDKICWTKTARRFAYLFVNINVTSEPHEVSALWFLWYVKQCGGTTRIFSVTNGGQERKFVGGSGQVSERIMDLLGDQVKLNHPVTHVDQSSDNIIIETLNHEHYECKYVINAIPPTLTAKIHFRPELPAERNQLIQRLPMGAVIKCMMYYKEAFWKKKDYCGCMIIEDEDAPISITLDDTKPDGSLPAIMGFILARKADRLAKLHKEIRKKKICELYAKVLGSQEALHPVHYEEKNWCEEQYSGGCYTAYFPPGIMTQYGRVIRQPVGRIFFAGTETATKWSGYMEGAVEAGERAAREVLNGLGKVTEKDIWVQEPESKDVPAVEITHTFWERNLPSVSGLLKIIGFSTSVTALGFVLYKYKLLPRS
Description: (§1) LSD1 inhibitor screening assay kit was purchased to evaluate for the enzyme inhibition activity of all synthetic compounds (Cayman Chemical, Fort Annapolis, MI). The MAO-A/B biochemical kit was purchased to explore the inhibitory activity against MAO-A and MAO-B (Promega, Madison, WI). […] The signal of each well was read by a GloMax Explorer (Beijing Yuanpinghao Biotechnology Co., Ltd, Beijing, China).

[2] = molecular target: T2, MAO-B (Homo sapiens, UniProt P27338); test: MAO-A/B biochemical kit, MAO-B
T2 construct: purchased Promega
T2 sequence (P27338 1-520): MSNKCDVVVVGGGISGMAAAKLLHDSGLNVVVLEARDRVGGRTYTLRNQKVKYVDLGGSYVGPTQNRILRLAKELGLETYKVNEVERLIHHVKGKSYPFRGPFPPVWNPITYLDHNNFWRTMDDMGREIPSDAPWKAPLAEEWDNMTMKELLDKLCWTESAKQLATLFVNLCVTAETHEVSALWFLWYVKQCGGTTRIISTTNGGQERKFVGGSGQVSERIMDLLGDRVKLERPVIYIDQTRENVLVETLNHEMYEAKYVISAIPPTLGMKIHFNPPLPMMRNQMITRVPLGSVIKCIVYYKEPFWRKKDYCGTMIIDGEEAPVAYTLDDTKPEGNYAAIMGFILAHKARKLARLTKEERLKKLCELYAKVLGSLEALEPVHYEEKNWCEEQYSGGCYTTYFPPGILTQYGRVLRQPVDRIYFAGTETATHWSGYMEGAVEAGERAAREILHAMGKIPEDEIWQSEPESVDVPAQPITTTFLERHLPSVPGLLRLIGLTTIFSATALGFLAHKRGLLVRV
Description: as §1

[3] = tested on: H3K4me1, H3K4me2, and H3K9me2 in HT1376 cells; test: Western blotting of LSD1 substrates; format: cell-based; details: Figure 4(D)
Description: Cells were seeded in four-well plates (Shanghai Yuanye Biotechnology Co., Ltd, Shanghai, China) and exposed to different compounds at different concentrations. Cells were harvested to obtain protein solution by the RIPA Lysis Buffer (DeTie, NanJing, China). The proteins were separated on sodium dodecyl sulphate–polyacrylamide gel electrophoresis (SDS-PAGE) gels and then transferred to poly(vinylidene fluoride (PVDF) membranes (Shanghai Yuanye Biotechnology Co., Ltd, Shanghai, China). It incubated with the primary antibodies and corresponding HRP conjugated secondary antibodies (Servicebio, Wuhan, China). The […] kit (Servicebio, Wuhan, China) was used to visualise the bands.

[4] = molecular target: T3, LSD1 (Homo sapiens, UniProt O60341); test: LSD1 dilution assay; format: biochemical; set-up: purchased Cayman Chemical; details: diluted 80 times; Figure 3(C)
Description: LSD1 recombinant (Cayman Chemical, […], MI) was incubated with the targeted compound or dimethyl sulphoxide for 60 min. Then, samples were diluted 80 times using a HRP-assay solution containing substrate and coupling reagents. Finally, LSD1 inhibitory activity before and after dilution was examined.

[5] = tested on: HTB3 (human bladder cell line); test: MTT cell viability assay, HTB3; details: read-out: IC50 against HTB3 cells, 48 h
Description: (§2) Cells were cultured at a 96-well plate for 24 h (Cayman Chemical, Fort Annapolis, MI) and different compounds were added. […] The solution was removed and dimethyl sulphoxide was added. Thirty minutes later, absorption values were read by a Fully Automated Microplate ELISA Analyser (DeTie, NanJing, China).

[6] = tested on: LX-2 (normal human hepatic stellate cell line); test: MTT cell viability assay, LX-2; details: read-out: IC50 against LX-2 normal cell line, 48 h
Description: as §2

[7] = tested on: HIEC (normal human intestinal epithelial cell line); test: MTT cell viability assay, HIEC; details: read-out: IC50 against HIEC normal cell line, 48 h
Description: as §2

[8] = tested on: HTB5 cells (bladder cancer cell line); test: MTT cell viability assay, HTB5; details: read-out: IC50 against HTB5 cells; 48 h
Description: as §2

[9] = tested on: HTB1 cells (bladder cancer cell line); test: MTT cell viability assay, HTB1; details: read-out: IC50 against HTB1 cells; 48 h
Description: as §2

[10] = tested on: H1299 (human lung cell line); test: MTT cell viability assay, H1299; details: read-out: IC50 against H1299 cells, 48 h
Description: as §2

[11] = tested on: HCT-15 (human colon cell line); test: MTT cell viability assay, HCT-15; details: read-out: IC50 against HCT-15 cells, 48 h
Description: as §2

[12] = tested on: Jurkat (human leukaemia cell line); test: MTT cell viability assay, Jurkat; details: read-out: IC50 against Jurkat cells, 48 h
Description: as §2

[13] = tested on: HT1376 cells (bladder cancer cell line); test: MTT cell viability assay, HT1376; details: read-out: IC50 against HT1376 cells; 48 h
Description: as §2

[14] = tested on: Bel7402 (human liver cell line); test: MTT cell viability assay, Bel7402; details: read-out: IC50 against Bel7402 cells, 48 h
Description: as §2

[15] = tested on: HPAEpiC (normal human alveolar epithelial cell line); test: MTT cell viability assay, HPAEpiC; details: read-out: IC50 against HPAEpiC normal cell line, 48 h
Description: as §2

[16] = molecular target: T3, LSD1; test: LSD1 inhibitor screening assay kit
Description: as §1

[17] = tested on: SGC-7901 (human gastric cell line); test: MTT cell viability assay, SGC-7901; details: read-out: IC50 against SGC-7901 cells, 48 h
Description: as §2

[18] = tested on: HTB3&shControl cells; test: Antiproliferative activity, control cells HTB3&shControl; details: read-out: IC50 against HTB3&shControl cells
Description: as §2

[19] = tested on: HT1376&shControl cells; test: Antiproliferative activity, control cells HT1376&shControl; details: read-out: IC50 against HT1376&shControl cells
Description: as §2

[20] = tested on: HTB3&shLSD1 cells; test: Antiproliferative activity, LSD1 knock-down cells HTB3&shLSD1; details: read-out: IC50 against HTB3&shLSD1 cells
Description: as §2

[21] = tested on: HT1376&shLSD1 cells; test: Antiproliferative activity, LSD1 knock-down cells HT1376&shLSD1; details: read-out: IC50 against HT1376&shLSD1 cells
Description: as §2

## COc1cc(N(CCCCSC(=S)N2CCN(CCO)CC2)S(=O)(=O)c2cccc3cccnc23)cc(OC)c1OC [Compound L8, 4-(N-(3,4,5-trimethoxyphenyl)quinoline-8-sulfonamido)butyl-4–(2-hydroxyethyl)piperazine-1-carbodithioate]
[1]
  IC50: > 120 µM
[1]; at 100 nM
  inhibitory rate MAO-A: 10.33%
[2]
  IC50: > 120 µM
[2]; at 100 nM
  inhibitory rate MAO-B: 9.33%
[3]
  expression levels of H3K4me1, H3K4me2, and H3K9me2: increasing; also recorded: increased
[4]
  reversibility of LSD1 inhibition: reversible
[5]
  IC50: 180 nM
[6]
  IC50: > 16000 nM
[7]
  IC50: > 16000 nM
[8]
  IC50: 1870 nM
[9]
  IC50: 930 nM
[10]
  IC50: 310 nM
[11]
  IC50: 2170 nM
[12]
  IC50: 290 nM
[13]
  IC50: 90 nM
[14]
  IC50: 960 nM
[15]
  IC50: > 16000 nM
[16]; Figure 3(B)
  time dependence of LSD1 inhibition: time-dependent
[16]; at 25 nM
  inhibition against LSD1: about 30.33%
[16]; at 50 nM
  inhibition against LSD1: ~46.00%
[16]; at 100 nM
  inhibition against LSD1: ~68.00%
[16]; read-out: IC50 (μM) LSD1
  IC50: 0.06 ± 0.01 µM
[17]
  IC50: 2670 nM
[18]
  IC50: 230 nM
[19]
  IC50: 110 nM
[20]
  IC50: 3070 nM
[21]
  IC50: 4360 nM
